From patent US8652439B2, “Compositions of HSP60 peptides and viral antigens for vaccination and diagnosis” (priority 2005, dated 2014)

Columns and labels:
[1] = test system: splenocytes; assay: Proliferation of splenocytes from mice immunized with p15 conjugates, stimulated in vitro with p15; assay type: in vivo; settings: spleens 10 days after immunization; p15 25 μg/ml, 3 days
Method: (§1) Mice were immunized with the following peptides as described in Example 8 using the following peptides: p15 (SEQ ID NO:11), p32 (SEQ ID NO:13), Ec27-p15 ([…], SEQ ID NO:77), and Mock-p15 ([…], SEQ ID NO:80—the p431 peptide fused to p15).
(§2) Spleens were harvested 10 days after the immunization and splenocytes were cultured with p15 (25 μg/ml) for 3 days. Cell proliferation and IFNγ levels in the supernatants of spleen cell cultures were measured. Results are the average of 3 independent proliferation experiments. Ec27-Ep15* and Ec27-Ep15** are two identical but independent groups in the same experiment.

[2] = test system: IFN-γ; assay: IFN-γ secretion of splenocytes from mice immunized with p15 conjugates, stimulated in vitro with p15; assay type: in vivo; settings: spleens 10 days after immunization; p15 25 μg/ml, 3 days
Method: as §1, §2

[3] = test system: BALB/c lymph node cells; assay: Proliferative response of lymph node cells to overlapping GroEL peptides after immunization with E. coli bacteria or GroEL; assay type: cell-based, BALB/c mice; settings: mice immunized with E. coli bacteria or GroEL; peptides 20 μg/ml
[4] = test system: lymph node cells; assay: Proliferative response of lymph node cells after immunization with the Ec27 peptide; assay type: in vivo, mice
[5] = test system: splenocytes from WNV-infected mice; assay: Proliferation of splenocytes from WNV-infected mice after in vitro stimulation with peptides; assay type: cell-based; settings: in vitro stimulation with peptide
[6] = test system: WNV; assay: Protective efficacy of immunization against WNV challenge (mortality); assay type: in vivo, BALB/c mice
[7] = test system: WNV; assay: Virus levels in brain after p32 immunization and WNV challenge (RT-PCR and plaque assay); assay type: in vivo, mice; settings: day 7 after challenge with 10^6 pfu WNV; immunized 3 times
[8] = test system: WNV-Ag; assay: ELISA of anti-WNV Abs in sera of immunized mice; assay type: in vivo; settings: 7 days after 3rd immunization; sera 1:40
Method: FIG. 11. Anti-WNV Abs in the sera of mice immunized with different peptides or with WNV Ag. (A) Mice were immunized 3 times with the different peptides or WNV-Ag at 7 day intervals. Seven days after the 3rd immunization mice were bled and sera were tested as follows. Wells were coated with WNV-Ag (1:700 dilution). After blocking and washing, the different sera were added at 1:40 dilution and binding was detected as described in methods (ELISA). Results are the average of 4 independent ELISA experiments. Bars, ±SD. (B) Isotypes of Anti-WNV antibodies.
ELISA tests were performed according to the method described by Martin et al (Martin et al, 2000) with slight modifications. Briefly, microtiter plates were coated and incubated overnight at 4° C. with 100 μl of the different peptides (1 μg/well) or WNV antigen diluted 1:700 in coating buffer (NaHCO3, pH=9.6). After incubation, the coating buffer was decanted and the plates were washed twice in PBS containing 0.05% Tween 20 and 0.2% sodium azide (washing buffer). After blocking for 1 h with a 200 μl/wen of PBS containing 0.05% Tween 20 and 2.5% nonfat dry milk, the plates were washed 4 times in washing buffer and 100 μl of IVIG-IL or mouse sera at 1:40 dilution were added to each well (2-4 wells per sample). […] The color intensity was measured by ELISA-reader (Dynatec MR 5000) at the absorbance of 405 nm. […]

[9] = test system: WNV-Ag; assay: Isotypes of anti-WNV antibodies (ELISA); assay type: in vivo, mice
Method: Plates were coated with the WNV-Ag diluted 1:700 in coating buffer. After overnight incubation at 4° C., blocking and washing, various dilutions of mouse sera were added in triplicates. Negative and positive controls of mouse sera were tested in each plate. Total IgG assessment was performed using HRP-Streptavidin-conjugated anti-mouse IgG (SouthernBiotech). For antibody isotype identification, incubation with biotin-conjugated anti-mouse IgG1, IgG2a, IgG2b, IgG3, IgA and IgM antibodies (PharMingen, San Diego, Calif.) was followed by incubation with 1:1000 diluted HRP-Streptavidin (Jackson Laboratories, West Grove, Pa.). After substrate addition the color intensity was measured by ELISA-reader at 405 nm.
Next, it was examined whether p32 immunization and sublethal infection with WNV induce similar isotypes of anti-WNV antibodies. WNV-Ag was used as the antigen in the ELISA plates.

[10] = test system: splenocytes; assay: Proliferation of splenocytes from p32-immunized mice after in vitro stimulation; assay type: in vivo; settings: in vitro stimulation with WNV antigen
[11] = test system: IFNγ; assay: IFNγ secretion of splenocytes from p32-vaccinated mice; assay type: in vivo; settings: in vitro stimulation with WNV antigen
[12] = 3 immunizations, 10^6 pfu WNV, 21 days post challenge, 5 experiments
[13] = sera of p32-immunized versus WNV-infected mice

Row | Sequence | Proliferation of spleen cells in the presence of p15 [1] | IFN-γ secretion of spleen cells in the presence of p15 [2] | Proliferative response of draining LNC to GroEL peptide [3] | Proliferative response of lymph node cells of Ec27-immunized BALB/c mice ([4]; 20 μg Ec27 in IFA s.c., 10 days later) | Proliferative response of mouse strains with different MHC haplotypes ([4]; BALB/c, BALB/k, BALB/b, SJL) | Proliferation of T cells from WNV-infected mice [5] | Mortality (% deaths) [6, 12] | Mortality (dead of total) [6, 12] | Protective efficacy against WNV challenge ([6]; summary of 5 experiments) | Virus levels in the brain [7] | WNV-specific Abs in sera [8] | WNV-specific IgA and IgG3 ([9]; sera of p32-immunized and WNV-infected mice) | Anti-WNV IgG1 and IgG2a levels [9, 13] | WNV-specific IgG2b levels [9, 13] | WNV-specific IgM levels [9, 13] | Proliferation of splenocytes from immunized mice [10] | IFNγ secretion of splenocytes from immunized mice [11]
1 | KKARVEDALHATRAAVEEGV [Ec27] | did not induce significant proliferation | did not induce significant proliferation and IFN-γ secretion | highly immunogenic | responded the Ec27 peptide and to the whole GroEL molecule, but not to the control peptide AcR 259-271 | all four different mouse strains responded specifically |  |  |  |  |  |  |  |  |  |  |  | 
2 | NEDQKIGIEIIKRALKILVTVNPFVSVATANS [p32] |  |  |  |  |  | proliferated in response to in vitro stimulation | (10%) | 2/21 | a high degree of protection | no virus was detected | high titer of WNV-specific Abs as compared to immunization with p15 alone | Neither IgA nor IgG3 specific for WNV were detected | similarly high | higher in sera from WNV-infected mice | higher in p32-immunized mice | proliferated in response to in vitro stimulation with WNV antigen | secretion of high levels of IFNγ
